Experimental findings from ChEMBL document CHEMBL1201862, “PubChem BioAssay data set” (2004) are described below.

Activity calls are given as the source filed them.

Test [1] deals with Heat shock protein HSP 90-alpha (Homo sapiens, UniProt P07900). Format: functional, organism-based.
Another test has as its target Genome polyprotein (dengue virus type 2, UniProt P29990). Nature of the test: Dengue-2 NS5 methyltransferase inhibitors, primary screen, biochemical, confirmation dose response (AID 588689). Format: functional.
Test [2] concerns the target T1, Microphthalmia-associated transcription factor (Homo sapiens, UniProt O75030).
T1 sequence (O75030 whole entry): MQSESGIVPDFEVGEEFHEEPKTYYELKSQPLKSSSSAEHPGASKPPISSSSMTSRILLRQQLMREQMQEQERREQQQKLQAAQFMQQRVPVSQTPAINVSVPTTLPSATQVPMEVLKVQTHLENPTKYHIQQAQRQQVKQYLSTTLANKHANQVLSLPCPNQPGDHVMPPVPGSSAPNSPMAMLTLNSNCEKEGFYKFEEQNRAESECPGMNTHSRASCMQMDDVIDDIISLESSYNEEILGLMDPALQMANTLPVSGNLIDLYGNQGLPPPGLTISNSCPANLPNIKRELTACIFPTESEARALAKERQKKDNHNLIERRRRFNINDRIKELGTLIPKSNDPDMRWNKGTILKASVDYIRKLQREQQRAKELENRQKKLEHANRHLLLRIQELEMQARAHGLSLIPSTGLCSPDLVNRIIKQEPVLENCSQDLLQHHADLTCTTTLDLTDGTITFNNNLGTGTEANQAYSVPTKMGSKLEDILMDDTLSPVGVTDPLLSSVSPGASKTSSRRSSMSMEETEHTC
In words: TRPM1 promoter luciferase signal decrease, dose response, MITF inhibitor project, cell-based, SK-MEL-5, cherry-picked, set 3 (AID 493073).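 Note: SK-MEL-5 melanoma cells with luciferase driven by the MITF target TRPM1 promoter.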 The test is classed as functional.

The nature of test [3]: Luminescence Cell-Based Dose Confirmation HTS to Identify Inhibitors of Polyadenylation. The test is classed as functional.
The nature of test [4]: polyadenylation inhibitors in yeast reporter, dose response, luminescence, S. cerevisiae SKY197-pL101 (AID 2525). The test is classed as functional, cell-based.
The target in test [5] is Intestinal-type alkaline phosphatase (Homo sapiens, UniProt P09923). Nature of the test: Dose Response confirmation of uHTS hits from a small molecule inhibitors of human intestinal alkaline phosphatase via a luminescent assay. [Related pubchem assays (depositor defined):AID2544, AID2574]. The test is classed as functional.
Test [6] is described as follows: Luminescence Cell-Based Dose Retest to Confirm Inhibitors of Cancer Stem Cells. [Related pubchem assays (depositor defined):AID2717, AID2721]. The test is classed as functional. As to conditions: Homo sapiens.
Test [7] addresses T2, Tyrosine-protein phosphatase non-receptor type 7 (Homo sapiens, UniProt P35236).
T2 sequence (P35236 whole entry): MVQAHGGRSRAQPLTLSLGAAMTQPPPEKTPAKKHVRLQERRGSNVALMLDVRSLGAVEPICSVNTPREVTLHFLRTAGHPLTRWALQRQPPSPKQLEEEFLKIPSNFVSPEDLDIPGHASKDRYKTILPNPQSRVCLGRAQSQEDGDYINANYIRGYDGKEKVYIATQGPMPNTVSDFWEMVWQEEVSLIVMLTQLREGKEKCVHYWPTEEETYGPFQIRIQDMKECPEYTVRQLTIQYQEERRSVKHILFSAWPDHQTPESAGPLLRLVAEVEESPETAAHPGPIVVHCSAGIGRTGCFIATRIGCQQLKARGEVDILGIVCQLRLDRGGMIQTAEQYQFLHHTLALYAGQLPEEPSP
Format: functional.

In test [8] the target is T3, Dual specificity protein phosphatase 6 (Rattus norvegicus, UniProt Q64346).
T3 sequence (Q64346 whole entry): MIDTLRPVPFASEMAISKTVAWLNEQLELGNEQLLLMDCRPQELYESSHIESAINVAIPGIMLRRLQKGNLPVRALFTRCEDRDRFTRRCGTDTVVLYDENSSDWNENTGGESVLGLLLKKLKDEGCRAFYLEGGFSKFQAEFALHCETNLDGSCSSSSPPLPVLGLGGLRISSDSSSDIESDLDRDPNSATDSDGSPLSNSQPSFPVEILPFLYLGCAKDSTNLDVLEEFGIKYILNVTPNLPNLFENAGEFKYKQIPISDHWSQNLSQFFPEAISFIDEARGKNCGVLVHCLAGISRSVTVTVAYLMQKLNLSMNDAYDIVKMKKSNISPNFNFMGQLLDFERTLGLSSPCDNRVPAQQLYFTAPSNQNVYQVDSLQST

The target of test [9] is T3, Dual specificity protein phosphatase 6. The test is classed as functional.
Test [10] addresses Glyceraldehyde-3-phosphate dehydrogenase (Homo sapiens, UniProt P04406).
The target in test [11] is Neurotensin receptor type 1 (Homo sapiens, UniProt P30989). Format: functional.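 Note: Image-based confirmatory dose-response assay measuring agonist activity at NTR1; NTR1-expressing U2OS osteosarcoma cells imaged for beta-arrestin GFP spot formation; agonist potency where compounds increase beta-arrestin recruitment.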
Sequence of Neurotensin receptor type 1 (P30989 whole entry): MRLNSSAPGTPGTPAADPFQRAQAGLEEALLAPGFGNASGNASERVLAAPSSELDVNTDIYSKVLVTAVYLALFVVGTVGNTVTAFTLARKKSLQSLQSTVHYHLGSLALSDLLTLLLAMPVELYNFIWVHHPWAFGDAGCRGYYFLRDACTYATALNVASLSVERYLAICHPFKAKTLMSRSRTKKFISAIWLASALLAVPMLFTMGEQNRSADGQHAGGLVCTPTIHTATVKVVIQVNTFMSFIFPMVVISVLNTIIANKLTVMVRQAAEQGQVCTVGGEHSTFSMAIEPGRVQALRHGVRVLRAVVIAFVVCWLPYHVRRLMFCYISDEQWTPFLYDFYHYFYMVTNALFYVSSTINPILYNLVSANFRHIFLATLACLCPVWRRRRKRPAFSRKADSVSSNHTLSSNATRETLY
The nature of test [12]: LGR2 antagonists, dose response, cell-based, HEK293, CRE-luciferase reporter, cherry pick, set 2 (AID 743343).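 Note: transfected cells were stimulated with diluted bursicon conditioned medium after compound addition.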 Format: functional.
Test [13] can be described thus: A549 cell cytotoxicity, dose response, cytotoxicity control, plate reader, cherry-pick, antagonist series (AID 743412). The test is classed as functional, cell-based.
A short description of test [14]: HEK293 cell cytotoxicity, dose response, cytotoxicity control, plate reader, cherry-picked samples (AID 743446). Format: functional, cell-based.
Test [15] can be described thus: HepG2 cell cytotoxicity, dose response, cytotoxicity control, plate reader, cherry-pick, antagonist series (AID 743416). The test is classed as functional, cell-based.
The test system of test [16] is Streptococcus. Nature of the test: Luminescence Microorganism-Based Dose Response Follow up to Identify Compounds Cytotoxic to Streptococcus. [Related pubchem assays: 1677 (Project Summary), 1915, 1914, 1902 (Retest at Dose), 1900 (Counter Screen), 1662 (Primary HTS)]. Format: functional, organism-based. On the technique in general: Counterscreens check selectivity or assay interference.

The target of the next test is T4, Streptokinase A (Streptococcus pyogenes serotype M1, UniProt P10520).
T4 sequence (P10520 whole entry): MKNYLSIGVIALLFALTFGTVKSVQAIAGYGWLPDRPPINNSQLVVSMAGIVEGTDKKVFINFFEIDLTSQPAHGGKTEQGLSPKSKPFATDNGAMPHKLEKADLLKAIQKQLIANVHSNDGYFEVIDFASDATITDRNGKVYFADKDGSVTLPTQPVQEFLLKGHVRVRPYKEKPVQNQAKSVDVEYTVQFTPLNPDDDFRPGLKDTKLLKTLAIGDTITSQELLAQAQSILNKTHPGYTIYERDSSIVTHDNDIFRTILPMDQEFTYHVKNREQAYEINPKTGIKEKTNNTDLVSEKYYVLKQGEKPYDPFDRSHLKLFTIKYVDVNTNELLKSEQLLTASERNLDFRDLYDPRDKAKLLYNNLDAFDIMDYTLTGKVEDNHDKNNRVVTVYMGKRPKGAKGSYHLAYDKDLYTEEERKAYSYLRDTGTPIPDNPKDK
Nature of the test: S. pyogenes streptokinase expression inhibitors, potency, dose response, plasminogen activation absorbance, OD405 (AID 1914).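 Note: secreted streptokinase activity via plasminogen activation per viability signal from cell pellet.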 Format: functional, Streptococcus pyogenes M1 GAS.

For test [17], the system named is Streptococcus. Nature of the test: Group A Streptococcus viability loss, dose response, counter-screen for streptokinase expression inhibitor project, luminescence, BacTiterGlo (AID 1915).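 Note: potency for reduction of bacterial viability or growth.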 The test is classed as functional, organism-based.
For test [18], the system named is Streptococcus sp. 'group A'. Nature of the test: growth inhibition of control SK(-) GAS strain, dose response, counter-screen for streptokinase expression inhibitor project, luminescence, kanamycin, BacTiterGlo, confirmation (AID 1900). The test is classed as functional, organism-based.
For test [19], the target named is Melanin-concentrating hormone receptor 1 (Homo sapiens, UniProt Q99705). In words: Fluorescence-based counterscreen for antagonists of the G-protein coupled receptor 7 (GPR7): cell-based high throughput dose response assay to identify antagonists of the melanin-concentrating hormone receptor 1 (MCHR1). Format: functional.
Sequence of Melanin-concentrating hormone receptor 1 (Q99705 whole entry): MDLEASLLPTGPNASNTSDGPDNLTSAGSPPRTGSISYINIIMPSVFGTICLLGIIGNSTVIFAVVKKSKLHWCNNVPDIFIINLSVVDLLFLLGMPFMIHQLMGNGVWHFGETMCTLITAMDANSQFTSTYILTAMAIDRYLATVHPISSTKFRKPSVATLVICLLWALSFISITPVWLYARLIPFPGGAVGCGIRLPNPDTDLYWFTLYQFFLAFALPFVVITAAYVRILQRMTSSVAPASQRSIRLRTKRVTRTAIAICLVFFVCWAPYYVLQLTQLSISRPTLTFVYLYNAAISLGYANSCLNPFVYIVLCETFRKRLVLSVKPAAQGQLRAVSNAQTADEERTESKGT
In test [20] the target is Polyadenylate-binding protein 1 (Homo sapiens, UniProt P11940). In words: PABP inhibition in translation initiation, SAR follow-up (AID 435018). Format: functional.
Test [21] concerns the target Eukaryotic translation initiation factor 4H (Homo sapiens, UniProt Q15056). In words: eIF4H inhibition in translation initiation, SAR follow-up (AID 435011). The test is classed as functional.
Another test addresses Cytochrome P450 2C9 (Homo sapiens, UniProt P11712). As to conditions: Potency.
The target in test [22] is T5, Voltage-dependent T-type calcium channel subunit alpha-1H (Homo sapiens, UniProt O95180). Format: functional.
T5 sequence (O95180 whole entry): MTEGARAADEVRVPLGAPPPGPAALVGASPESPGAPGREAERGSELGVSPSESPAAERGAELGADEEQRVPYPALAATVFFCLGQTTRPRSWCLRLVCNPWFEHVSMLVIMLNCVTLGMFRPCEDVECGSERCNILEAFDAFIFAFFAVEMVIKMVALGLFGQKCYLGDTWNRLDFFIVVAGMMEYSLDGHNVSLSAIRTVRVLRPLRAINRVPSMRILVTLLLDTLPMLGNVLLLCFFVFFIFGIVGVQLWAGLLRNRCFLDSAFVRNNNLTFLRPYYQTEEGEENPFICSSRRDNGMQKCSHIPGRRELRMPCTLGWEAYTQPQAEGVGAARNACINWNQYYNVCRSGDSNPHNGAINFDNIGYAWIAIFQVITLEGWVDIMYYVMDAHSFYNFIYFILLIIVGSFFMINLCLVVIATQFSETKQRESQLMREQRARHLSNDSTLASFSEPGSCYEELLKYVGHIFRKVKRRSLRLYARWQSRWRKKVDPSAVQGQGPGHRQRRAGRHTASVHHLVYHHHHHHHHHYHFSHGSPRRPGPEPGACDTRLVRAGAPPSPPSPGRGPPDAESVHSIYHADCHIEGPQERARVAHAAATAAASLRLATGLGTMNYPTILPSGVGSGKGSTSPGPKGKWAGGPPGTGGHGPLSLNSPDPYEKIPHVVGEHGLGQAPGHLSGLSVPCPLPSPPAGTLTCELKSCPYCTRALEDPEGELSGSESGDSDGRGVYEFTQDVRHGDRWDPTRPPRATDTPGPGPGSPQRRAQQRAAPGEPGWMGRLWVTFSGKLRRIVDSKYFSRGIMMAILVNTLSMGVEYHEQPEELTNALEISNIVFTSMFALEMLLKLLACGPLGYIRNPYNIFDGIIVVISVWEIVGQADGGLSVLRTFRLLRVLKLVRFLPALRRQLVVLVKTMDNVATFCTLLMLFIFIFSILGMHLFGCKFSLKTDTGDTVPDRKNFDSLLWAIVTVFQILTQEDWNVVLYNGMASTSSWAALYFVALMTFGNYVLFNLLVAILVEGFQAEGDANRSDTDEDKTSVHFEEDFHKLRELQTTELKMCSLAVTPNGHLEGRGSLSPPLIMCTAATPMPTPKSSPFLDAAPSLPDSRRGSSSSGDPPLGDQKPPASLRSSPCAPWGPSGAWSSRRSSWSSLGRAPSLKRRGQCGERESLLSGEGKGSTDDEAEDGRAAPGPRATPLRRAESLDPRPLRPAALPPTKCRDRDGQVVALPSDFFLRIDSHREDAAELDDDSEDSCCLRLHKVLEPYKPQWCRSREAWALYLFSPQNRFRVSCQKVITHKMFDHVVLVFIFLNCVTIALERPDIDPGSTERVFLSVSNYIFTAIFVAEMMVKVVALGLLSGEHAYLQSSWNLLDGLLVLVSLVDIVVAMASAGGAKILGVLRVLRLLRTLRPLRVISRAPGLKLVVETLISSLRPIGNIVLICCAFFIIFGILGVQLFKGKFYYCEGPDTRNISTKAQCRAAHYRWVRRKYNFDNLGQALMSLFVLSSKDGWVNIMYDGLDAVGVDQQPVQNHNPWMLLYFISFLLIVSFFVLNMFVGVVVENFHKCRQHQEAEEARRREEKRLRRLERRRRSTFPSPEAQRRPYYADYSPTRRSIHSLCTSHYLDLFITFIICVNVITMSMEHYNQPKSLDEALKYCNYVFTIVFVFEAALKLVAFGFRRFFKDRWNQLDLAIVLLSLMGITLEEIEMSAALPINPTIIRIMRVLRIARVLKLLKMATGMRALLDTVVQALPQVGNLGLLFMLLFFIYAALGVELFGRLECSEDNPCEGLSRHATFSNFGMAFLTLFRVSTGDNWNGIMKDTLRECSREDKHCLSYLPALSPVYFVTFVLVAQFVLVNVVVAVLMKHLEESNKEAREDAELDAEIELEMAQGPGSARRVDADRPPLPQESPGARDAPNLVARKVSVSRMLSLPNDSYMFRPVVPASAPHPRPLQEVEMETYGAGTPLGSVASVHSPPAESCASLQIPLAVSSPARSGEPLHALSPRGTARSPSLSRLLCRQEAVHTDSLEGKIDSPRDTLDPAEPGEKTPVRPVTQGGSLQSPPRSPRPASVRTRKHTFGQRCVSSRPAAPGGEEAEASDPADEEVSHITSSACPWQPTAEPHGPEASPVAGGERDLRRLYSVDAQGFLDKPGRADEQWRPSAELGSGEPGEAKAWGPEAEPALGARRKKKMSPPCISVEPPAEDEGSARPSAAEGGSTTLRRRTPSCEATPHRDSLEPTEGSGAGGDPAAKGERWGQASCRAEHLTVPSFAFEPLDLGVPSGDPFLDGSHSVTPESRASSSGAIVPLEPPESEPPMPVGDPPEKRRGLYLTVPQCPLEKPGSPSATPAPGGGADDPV
Test [23] deals with T5, Voltage-dependent T-type calcium channel subunit alpha-1H. In words: Inhibitors of T-Type Calcium Channels. [Related pubchem assays (depositor defined):AID449739, AID463087, AID489005, AID493041, AID504579, AID504584, AID504619, AID504628]. The test is classed as functional.
The target in another test is Procathepsin L (Homo sapiens, UniProt P07711).
Sequence of Procathepsin L (P07711 whole entry): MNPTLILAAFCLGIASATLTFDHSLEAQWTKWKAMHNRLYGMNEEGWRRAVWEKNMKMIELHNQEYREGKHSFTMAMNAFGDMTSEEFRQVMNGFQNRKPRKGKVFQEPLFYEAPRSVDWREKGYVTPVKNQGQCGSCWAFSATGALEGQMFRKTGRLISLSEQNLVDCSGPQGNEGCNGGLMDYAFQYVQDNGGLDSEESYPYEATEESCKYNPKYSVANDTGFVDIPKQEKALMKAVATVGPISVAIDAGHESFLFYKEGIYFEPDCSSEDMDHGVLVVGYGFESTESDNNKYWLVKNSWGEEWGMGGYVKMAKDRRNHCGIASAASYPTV
For the next test, the target named is Aspartyl aminopeptidase (Plasmodium falciparum 3D7, UniProt Q8I2J3).
Test [24] has as its target T6, Cytochrome P450 3A4 (Homo sapiens, UniProt P08684). As to conditions: read-out: Potency.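 Note: confirmatory qHTS run detecting inhibitors and substrates of CYP3A4.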
Test [25] addresses T6, Cytochrome P450 3A4. As to conditions: Potency.

T6 sequence (P08684 whole entry): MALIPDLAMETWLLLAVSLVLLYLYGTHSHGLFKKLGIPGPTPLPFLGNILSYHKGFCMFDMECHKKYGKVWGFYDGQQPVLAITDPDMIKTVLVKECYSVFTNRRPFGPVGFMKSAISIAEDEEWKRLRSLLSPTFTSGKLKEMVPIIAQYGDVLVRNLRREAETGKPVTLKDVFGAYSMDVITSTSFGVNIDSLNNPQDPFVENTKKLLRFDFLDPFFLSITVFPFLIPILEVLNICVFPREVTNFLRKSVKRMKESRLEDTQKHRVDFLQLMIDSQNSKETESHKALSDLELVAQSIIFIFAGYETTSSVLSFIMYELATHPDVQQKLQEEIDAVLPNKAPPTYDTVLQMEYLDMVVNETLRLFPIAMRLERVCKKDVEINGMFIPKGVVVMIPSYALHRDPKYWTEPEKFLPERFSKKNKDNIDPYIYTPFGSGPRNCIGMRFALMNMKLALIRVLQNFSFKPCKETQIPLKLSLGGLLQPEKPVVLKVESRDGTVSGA
Sequence of Glyceraldehyde-3-phosphate dehydrogenase (P04406 whole entry): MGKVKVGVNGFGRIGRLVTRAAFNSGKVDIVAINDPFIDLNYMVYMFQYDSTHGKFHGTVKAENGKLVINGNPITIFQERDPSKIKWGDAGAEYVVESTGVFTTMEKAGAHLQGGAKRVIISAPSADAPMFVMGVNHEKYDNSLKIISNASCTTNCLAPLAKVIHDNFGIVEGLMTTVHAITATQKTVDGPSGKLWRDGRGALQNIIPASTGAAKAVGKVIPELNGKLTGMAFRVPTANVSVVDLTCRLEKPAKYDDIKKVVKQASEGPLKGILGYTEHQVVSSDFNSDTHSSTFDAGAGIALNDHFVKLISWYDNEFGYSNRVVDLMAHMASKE
Sequence of Cytochrome P450 2C9 (P11712 whole entry): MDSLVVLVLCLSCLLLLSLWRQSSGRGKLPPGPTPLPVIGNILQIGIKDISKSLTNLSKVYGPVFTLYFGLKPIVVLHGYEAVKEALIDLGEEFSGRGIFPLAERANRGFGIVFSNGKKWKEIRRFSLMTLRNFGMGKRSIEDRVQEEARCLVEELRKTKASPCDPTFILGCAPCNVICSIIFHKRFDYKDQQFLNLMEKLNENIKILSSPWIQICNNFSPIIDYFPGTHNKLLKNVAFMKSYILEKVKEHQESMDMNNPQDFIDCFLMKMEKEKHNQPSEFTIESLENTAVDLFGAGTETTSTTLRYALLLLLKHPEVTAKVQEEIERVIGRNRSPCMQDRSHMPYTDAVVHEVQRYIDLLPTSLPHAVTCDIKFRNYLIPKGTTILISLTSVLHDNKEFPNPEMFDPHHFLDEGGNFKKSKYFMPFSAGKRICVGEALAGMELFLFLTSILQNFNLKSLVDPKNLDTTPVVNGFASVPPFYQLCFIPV

Regarding `Cc1ccc(C(=O)c2no[n+]([O-])c2C(=O)c2ccc(C)cc2)cc1`, the results for the AC50 in [1] and in test [2] were 2.37 µM (active) and 16.7 µM (active), respectively. The IC50 (usually the midpoint of a concentration-inhibition curve) on Genome polyprotein is > 100 µM (active). The EC50 (usually the concentration giving half of the maximal effect) is 2.92 µM (active) in test [3] and 3.01 µM (active) in test [4].

Turning to `Cc1ccc(NCc2ccc([N+](=O)[O-])s2)cc1`, in test [5], the IC50 was > 100 µM (inactive). Besides, the AC50 in [6] was > 195 µM (inactive).

For `CCOC(=O)C1Nc2c(O)cccc2C2C=CCC12` (stereo not given), the IC50 is > 100 µM (not active) in [7], > 100 µM (inactive) in [8], > 100 µM (inactive) in test [9] and > 100 µM (not active) in test [10].

As to `O=C(Nc1ccc(N2CCN(C(=O)c3ccccc3)CC2)cc1)c1cc2ccccc2o1`, the EC50 in test [11] is 24.4 µM (inactive). The AC50 in [12] is 5.93 µM (active); in test [13] it was 45.5 µM (active); in [14], 16.8 µM (active); in [15], 5.12 µM (active).

Turning to `Cc1ccc(/C=C/c2ccc(=O)n(Cc3ccccc3Cl)n2)cc1`, the EC50 with Streptococcus [16] was 10.7 µM (active); on Streptokinase A it was 10.2 µM (active); with Streptococcus [17], > 50 µM (not active); in [18], 6.69 µM (active).

Take `Cc1ccccc1CC1(CO)CCCN(C(=O)c2cc(Cl)ccc2F)C1` (stereo not given): the IC50 in test [19] is on record as > 14.6 µM (not active).

For `COc1cc(C=NNC(=O)c2ccc(O)cc2)ccc1OCC(=O)Nc1cccc([N+](=O)[O-])c1`, the IC50 in test [20] and in test [21] was > 100 µM (inactive) throughout.

Consider `COc1cccc(-c2cc(=O)c3cc(O)ccc3o2)c1`, for which the AC50 on Cytochrome P450 2C9 is 25.1 µM (inconclusive).

On to `Cc1cccc(NC(=O)C23CCC(C)(C2Br)C3(C)C)c1` (stereo not given), for which the EC50 in [22] is 2.64 µM (active); in test [23], 5.25 µM (active).

`Cc1cc(O)nc(SCC(=O)c2ccc(O)c(O)c2)n1`: the IC50 against Procathepsin L was > 59.6 µM (not active); on Aspartyl aminopeptidase, 1.49 µM (active).

Turning to `O=c1cccc2n1C[C@H]1CNC[C@H]2C1`, the AC50 at Cytochrome P450 3A4 [24] and at Cytochrome P450 3A4 [25] was 31.6 µM (inconclusive) each time.
